From patent US7402548B2, “Benzoxazole compounds, process for producing the same and herbicides” (Kyoyu Agri Co., Ltd., priority 2000, dated 2008)

How the values were obtained:
[1] = tested on: corn; assay: Soil treatment test for upland field; assay type: in vivo; parameters: key: 0 = normal development, 5 = all killed; conditions: 500 g/ha, 3 weeks, glass house 25° C.
Method in brief: (§1)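 Pre-emergence: seeds sown in alluvial Ube soil, wettable powder diluted in water with 0.05% surfactant sprayed on soil surface at 500 g/ha. Plants held in glasshouse at 25° C average for 3 weeks. Damage scored 0 (normal) to 5 (all killed) versus untreated.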

[2] = tested on: solgum; assay: Soil treatment test for upland field; assay type: in vivo; parameters: key: 0 = normal development, 5 = all killed; conditions: 500 g/ha, 3 weeks, glass house 25° C.
Method in brief: as §1

[3] = tested on: soybean; assay: Soil treatment test for upland field; assay type: in vivo; parameters: key: 0 = normal development, 5 = all killed; conditions: 500 g/ha, 3 weeks, glass house 25° C.
Method in brief: as §1

[4] = tested on: sugar beat; assay: Soil treatment test for upland field; assay type: in vivo; parameters: key: 0 = normal development, 5 = all killed; conditions: 500 g/ha, 3 weeks, glass house 25° C.
Method in brief: as §1

[5] = tested on: wheat; assay: Soil treatment test for upland field; assay type: in vivo; parameters: key: 0 = normal development, 5 = all killed; conditions: 500 g/ha, 3 weeks, glass house 25° C.
Method in brief: as §1

[6] = tested on: Large crabgrass; assay: Soil treatment test for upland field; assay type: in vivo, Digitaria adscendens; parameters: key: 0 = normal development, 5 = all killed; conditions: 500 g/ha, 3 weeks, glass house 25° C.
Method in brief: as §1

[7] = tested on: barnyard grass; assay: Soil treatment test for upland field; assay type: in vivo, Eschinochloa crusgalli; parameters: key: 0 = normal development, 5 = all killed; conditions: 500 g/ha, 3 weeks, glass house 25° C.
Method in brief: as §1

[8] = tested on: green foxtail; assay: Soil treatment test for upland field; assay type: in vivo, Setaria viridis; parameters: key: 0 = normal development, 5 = all killed; conditions: 500 g/ha, 3 weeks, glass house 25° C.
Method in brief: as §1

[9] = tested on: blackgrass; assay: Soil treatment test for upland field; assay type: in vivo, Alopecurus aegualis; parameters: key: 0 = normal development, 5 = all killed; conditions: 500 g/ha, 3 weeks, glass house 25° C.
Method in brief: as §1

[10] = tested on: annual bluegrass; assay: Soil treatment test for upland field; assay type: in vivo, Poa annua; parameters: key: 0 = normal development, 5 = all killed; conditions: 500 g/ha, 3 weeks, glass house 25° C.
Method in brief: as §1

[11] = tested on: common lambsquarters; assay: Soil treatment test for upland field; assay type: in vivo, Chenopodium album; parameters: key: 0 = normal development, 5 = all killed; conditions: 500 g/ha, 3 weeks, glass house 25° C.
Method in brief: as §1

[12] = tested on: livid amaranth; assay: Soil treatment test for upland field; assay type: in vivo, Amaranthus lividus; parameters: key: 0 = normal development, 5 = all killed; conditions: 500 g/ha, 3 weeks, glass house 25° C.
Method in brief: as §1

[13] = tested on: velvetleaf; assay: Soil treatment test for upland field; assay type: in vivo, Abutilon theophrasti; parameters: key: 0 = normal development, 5 = all killed; conditions: 500 g/ha, 3 weeks, glass house 25° C.
Method in brief: as §1

[14] = tested on: morning glory; assay: Soil treatment test for upland field; assay type: in vivo, Ipomoea spps.; parameters: key: 0 = normal development, 5 = all killed; conditions: 500 g/ha, 3 weeks, glass house 25° C.
Method in brief: as §1

[15] = tested on: corn; assay: Foliar spread test for upland field; assay type: in vivo; parameters: key: 0 = normal development, 5 = all killed (6 ranks vs. untreated); conditions: foliar spray, 500 ppm, 3 weeks, glass house 25° C.
Method in brief: (§2)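 Seeds were sown in volcanic ash soil in Wagner pots and grown about 2 weeks in a glass house at an average 25° C. Wettable-powder formulations diluted to 500 ppm in water with 0.5% surfactant were sprayed uniformly over the plants. After 3 further weeks at 25° C, damage was scored 0 (normal) to 5 (all killed) against untreated plants.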

[16] = tested on: cotton; assay: Foliar spread test for upland field; assay type: in vivo; parameters: key: 0 = normal development, 5 = all killed (6 ranks vs. untreated); conditions: foliar spray, 500 ppm, 3 weeks, glass house 25° C.
Method in brief: as §2

[17] = tested on: solgum; assay: Foliar spread test for upland field; assay type: in vivo; parameters: key: 0 = normal development, 5 = all killed (6 ranks vs. untreated); conditions: foliar spray, 500 ppm, 3 weeks, glass house 25° C.
Method in brief: as §2

[18] = tested on: soybean; assay: Foliar spread test for upland field; assay type: in vivo; parameters: key: 0 = normal development, 5 = all killed (6 ranks vs. untreated); conditions: foliar spray, 500 ppm, 3 weeks, glass house 25° C.
Method in brief: as §2

[19] = tested on: sugar beat; assay: Foliar spread test for upland field; assay type: in vivo; parameters: key: 0 = normal development, 5 = all killed (6 ranks vs. untreated); conditions: foliar spray, 500 ppm, 3 weeks, glass house 25° C.
Method in brief: as §2

[20] = tested on: wheat; assay: Foliar spread test for upland field; assay type: in vivo; parameters: key: 0 = normal development, 5 = all killed (6 ranks vs. untreated); conditions: foliar spray, 500 ppm, 3 weeks, glass house 25° C.
Method in brief: as §2

[21] = tested on: Large crabgrass; assay: Foliar spread test for upland field; assay type: in vivo, Digitaria adscendens; parameters: key: 0 = normal development, 5 = all killed (6 ranks vs. untreated); conditions: foliar spray, 500 ppm, 3 weeks, glass house 25° C.
Method in brief: as §2

[22] = tested on: barnyardgrjass; assay: Foliar spread test for upland field; assay type: in vivo, Eschinochloa crusgalli; parameters: key: 0 = normal development, 5 = all killed (6 ranks vs. untreated); conditions: foliar spray, 500 ppm, 3 weeks, glass house 25° C.
Method in brief: as §2

[23] = tested on: green foxtail; assay: Foliar spread test for upland field; assay type: in vivo, Setaria viridis; parameters: key: 0 = normal development, 5 = all killed (6 ranks vs. untreated); conditions: foliar spray, 500 ppm, 3 weeks, glass house 25° C.
Method in brief: as §2

[24] = tested on: blackgrass; assay: Foliar spread test for upland field; assay type: in vivo, Alopecurus aegualis; parameters: key: 0 = normal development, 5 = all killed (6 ranks vs. untreated); conditions: foliar spray, 500 ppm, 3 weeks, glass house 25° C.
Method in brief: as §2

[25] = tested on: annual bluegrass; assay: Foliar spread test for upland field; assay type: in vivo, Poa annua; parameters: key: 0 = normal development, 5 = all killed (6 ranks vs. untreated); conditions: foliar spray, 500 ppm, 3 weeks, glass house 25° C.
Method in brief: as §2

[26] = tested on: common lambsquarters; assay: Foliar spread test for upland field; assay type: in vivo, Chenopodium album; parameters: key: 0 = normal development, 5 = all killed (6 ranks vs. untreated); conditions: foliar spray, 500 ppm, 3 weeks, glass house 25° C.
Method in brief: as §2

[27] = tested on: livid amaranth; assay: Foliar spread test for upland field; assay type: in vivo, Amaranthus lividus; parameters: key: 0 = normal development, 5 = all killed (6 ranks vs. untreated); conditions: foliar spray, 500 ppm, 3 weeks, glass house 25° C.
Method in brief: as §2

[28] = tested on: velvetleaf; assay: Foliar spread test for upland field; assay type: in vivo, Abutilon theophrasti; parameters: key: 0 = normal development, 5 = all killed (6 ranks vs. untreated); conditions: foliar spray, 500 ppm, 3 weeks, glass house 25° C.
Method in brief: as §2

[29] = tested on: morning glory; assay: Foliar spread test for upland field; assay type: in vivo, Ipomoea spps.; parameters: key: 0 = normal development, 5 = all killed (6 ranks vs. untreated); conditions: foliar spray, 500 ppm, 3 weeks, glass house 25° C.
Method in brief: as §2

SMILES | Effects Corn [1] | Effects Solgum [2] | Effects Soybean [3] | Effects Sugar beat [4] | Effects Wheat [5] | Effects Large crabgrass [6] | Effects Barnyardgrass [7] | Effects Green foxtail [8] | Effects Blackgrass [9] | Effects Annual bluegrass [10] | Effects Common lambsquarters [11] | Effects Livid amaranth [12] | Effects Velvetleaf [13] | Effects Morning glory [14] | Effects Corn [15] | Effects Sotton [16] | Effects Solgum [17] | Effects Soybean [18] | Effects Sugar beat [19] | Effects Wheat [20] | other results
CC/C(=C\c1cccc(C(F)(F)F)c1)c1nc2cc(Cl)ccc2o1 [I-c-55, (E)-2-(5-chlorobenzoxazol-2-yl)-1-(3-trifluoromethylphenyl)butene] | 1 | 1 | 4 | 5 | 0 | 5 | 5 | 5 | 5 | 5 | 5 | 5 | 5 | 5 | 3 | 4 | 3 | 5 | 5 | 3 | Effects Large crabgrass [21]: 4; Effects Barnyardgrass [22]: 4; Effects Green foxtail [23]: 5; Effects Blackgrass [24]: 4; Effects Annual bluegrass [25]: 4; Effects Common lambsquarters [26]: 5; Effects Livid amaranth [27]: 4; Effects Velvetleaf [28]: 4; Effects Morning glory [29]: 5
CCC(=Cc1cccc(C(F)(F)F)c1)c1nc2cc(Cl)c(C)cc2o1 [I-c-131] | 1 | 3 | 1 | 5 | 1 | 5 | 5 | 5 | 5 | 5 | 5 | 5 | 5 | 5 | 3 | 5 | 2 | 5 | 4 | 2 | Effects Large crabgrass [21]: 4; Effects Barnyardgrass [22]: 3; Effects Green foxtail [23]: 4; Effects Blackgrass [24]: 4; Effects Annual bluegrass [25]: 4; Effects Common lambsquarters [26]: 5; Effects Livid amaranth [27]: 5; Effects Velvetleaf [28]: 4; Effects Morning glory [29]: 5
